Reference: patent US9505762B2, “Purine derivatives as CB2 receptor agonists” (Hoffmann-La Roche Inc., priority 2013, dated 2016)

Experiments:
human CB1 receptors = human CB1 receptors (Homo sapiens (Human), UniProt P21554); assay: functional cAMP assay, CB1; type: cell-based; conditions: CHO cells expressing human CB1
human CB2 receptors = human CB2 receptors (Homo sapiens (Human), UniProt P34972); assay: functional cAMP assay, CB2; type: cell-based; conditions: CHO cells expressing human CB2
Chain of human CB2 receptors (P34972 whole entry): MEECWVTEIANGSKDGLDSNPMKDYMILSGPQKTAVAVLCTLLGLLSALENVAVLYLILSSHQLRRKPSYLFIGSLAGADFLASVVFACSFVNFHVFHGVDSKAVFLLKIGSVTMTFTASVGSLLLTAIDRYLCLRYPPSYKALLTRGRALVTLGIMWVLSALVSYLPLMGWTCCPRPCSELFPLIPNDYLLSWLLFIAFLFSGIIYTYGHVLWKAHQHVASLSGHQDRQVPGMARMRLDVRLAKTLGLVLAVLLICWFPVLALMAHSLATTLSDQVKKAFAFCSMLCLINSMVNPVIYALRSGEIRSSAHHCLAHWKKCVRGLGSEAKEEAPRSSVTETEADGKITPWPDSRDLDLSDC

Chain of human CB1 receptors (P21554 whole entry): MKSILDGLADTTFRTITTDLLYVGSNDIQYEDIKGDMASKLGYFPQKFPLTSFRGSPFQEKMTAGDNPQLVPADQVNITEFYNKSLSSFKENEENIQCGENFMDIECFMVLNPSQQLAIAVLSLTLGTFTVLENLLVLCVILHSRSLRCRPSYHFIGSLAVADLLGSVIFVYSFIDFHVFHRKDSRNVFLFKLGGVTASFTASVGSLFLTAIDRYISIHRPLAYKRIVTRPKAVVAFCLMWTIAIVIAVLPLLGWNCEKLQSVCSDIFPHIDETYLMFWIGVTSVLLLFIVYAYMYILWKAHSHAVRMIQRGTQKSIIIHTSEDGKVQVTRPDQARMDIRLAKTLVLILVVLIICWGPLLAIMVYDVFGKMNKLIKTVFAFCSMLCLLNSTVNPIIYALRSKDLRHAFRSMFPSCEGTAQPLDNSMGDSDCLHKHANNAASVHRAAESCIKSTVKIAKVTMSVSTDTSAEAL

SMILES	EC50 (human CB1 receptors) [µM]	EC50 (human CB2 receptors) [µM]
CC1(O)CCN(c2nc(NC(C)(C)C)nc3c2ncn3Cc2ccccc2C(F)(F)F)C1 (stereo not shown) [Example 121, 1-[2-(tert-butylamino)-9-[[2-(trifluoromethyl)phenyl]methyl]purin-6-yl]-3-methylpyrrolidin-3-ol]	> 10	0.0413
Cc1nonc1Cn1cnc2c(N3CCC(C)(O)C3)nc(NC(C)(C)C)nc21 (stereo not shown) [Example 123, 1-[2-(tert-butylamino)-9-[(4-methyl-1,2,5-oxadiazol-3-yl)methyl]purin-6-yl]-3-methylpyrrolidin-3-ol]	> 10	0.563
CC(C)(C)COc1nc(N2CCC(F)(F)C2)c2ncn(Cc3ccccc3Cl)c2n1 [Example 124, 9-[(2-chlorophenyl)methyl]-6-(3,3-difluoropyrrolidin-1-yl)-2-(2,2-dimethylpropoxy) purine]	> 10	0.0027
CC(C)(C)COc1nc(N2CCC(F)(F)C2)c2ncn(Cc3ccccc3C(F)(F)F)c2n1 [Example 125, 6-(3,3-difluoropyrrolidin-1-yl)-2-(2,2-dimethylpropoxy)-9-[[2-(trifluoromethyl)phenyl]methyl]purine]	> 10	0.0026
CC(C)(C)COc1nc(N2CCC(F)(F)C2)c2ncn(Cc3ccccc3S(C)(=O)=O)c2n1 [Example 126, 6-(3,3-difluoropyrrolidin-1-yl)-2-(2,2-dimethylpropoxy)-9-[(2-methylsulfonylphenyl)methyl]purine]	> 10	0.0245
Cc1nnc(Cn2cnc3c(N4CCC(F)(F)C4)nc(OCC(C)(C)C)nc32)o1 [Example 127, 2-[[6-(3,3-difluoropyrrolidin-1-yl)-2-(2,2-dimethylpropoxy)purin-9-yl]methyl]-5-methyl-1,3,4-oxadiazole]	> 10	0.332
Cc1noc(Cn2cnc3c(N4CCC(F)(F)C4)nc(OCC(C)(C)C)nc32)n1 [Example 128, 5-[[6-(3,3-difluoropyrrolidin-1-yl)-2-(2,2-dimethylpropoxy)purin-9-yl]methyl]-3-methyl-1,2,4-oxadiazole]	> 10	0.109
Cn1nnnc1Cn1cnc2c(N3CCC(F)(F)C3)nc(OCC(C)(C)C)nc21 [Example 129, 6-(3,3-difluoropyrrolidin-1-yl)-2-(2,2-dimethylpropoxy)-9-[(1-methyltetrazol-5-yl)methyl]purine]	> 10	0.0956
CC(C)(C)Nc1nc(N2CC[C@H](O)C2)c2ncn(CCC(F)(F)F)c2n1 [Example 130, (3S)-1-[2-(tert-butylamino)-9-(3,3,3-trifluoropropyl)purin-6-yl]pyrrolidin-3-ol]	> 10	0.215
CC(C)(C)COc1nc(N2CCC(C)(O)C2)c2ncn(Cc3ccccc3Cl)c2n1 (stereo not shown) [Example 131, 1-[9-[(2-chlorophenyl)methyl]-2-(2,2-dimethylpropoxy)purin-6-yl]-3-methyl pyrrolidin-3-ol]	> 10	0.0667
CC(C)(C)COc1nc(N2CCC(C)(O)C2)c2ncn(Cc3ccccc3C(F)(F)F)c2n1 (stereo not shown) [Example 132, 1-[2-(2,2-dimethylpropoxy)-9-[[2-(trifluoromethyl)phenyl]methyl]purin-6-yl]-3-methylpyrrolidin-3-ol]	> 10	0.0221
CC(C)(C)COc1nc(N2CCC(C)(O)C2)c2ncn(Cc3ccccc3S(C)(=O)=O)c2n1 (stereo not shown) [Example 133, 1-[2-(2,2-dimethylpropoxy)-9-[(2-methylsulfonylphenyl)methyl]purin-6-yl]-3-methylpyrrolidin-3-ol]	> 10	0.149
CC(C)(C)COc1nc(N2CCC(C)(O)C2)c2ncn(Cc3ncccc3Cl)c2n1 (stereo not shown) [Example 134, 1-[9-[(3-chloropyridin-2-yl)methyl]-2-(2,2-dimethylpropoxy)purin-6-yl]-3-methylpyrrolidin-3-ol]	> 10	0.178
Cc1nonc1Cn1cnc2c(N3CCC(C)(O)C3)nc(OCC(C)(C)C)nc21 (stereo not shown) [Example 135, 1-[2-(2,2-dimethylpropoxy)-9-[(4-methyl-1,2,5-oxadiazol-3-yl)methyl]purin-6-yl]-3-methylpyrrolidin-3-ol]	> 10	0.0307
CC1(O)CCN(c2nc(NC(C)(C)C)nc3c2ncn3Cc2c[nH]nc2C(F)(F)F)C1 (stereo not shown) [Example 136, 1-[2-(tert-butylamino)-9-[[3-(trifluoromethyl)-1H-pyrazol-4-yl]methyl]purin-6-yl]-3-methylpyrrolidin-3-ol]	> 10	0.15
CC(C)(C)Nc1nc(N2CC3(COC3)C2)c2ncn(Cc3ccccc3Cl)c2n1 [Example 138, N-tert-butyl-9-[(2-chlorophenyl)methyl]-6-(2-oxa-6-azaspiro[3.3]heptan-6-yl)purin-2-amine]	> 10	0.0781
CC(C)(C)c1nc(N2CC[C@H](O)C2)c2ncn(Cc3nnnn3C3CC3)c2n1 [Example 139, (3S)-1-[2-tert-butyl-9-[(1-cyclopropyltetrazol-5-yl)methyl]purin-6-yl]pyrrolidin-3-ol]	> 10	0.201
Cc1nonc1Cn1cnc2c(N3CCC(F)(F)C3)nc(OCC(C)(C)C)nc21 [Example 140, 3-[[6-(3,3-difluoropyrrolidin-1-yl)-2-(2,2-dimethylpropoxy)purin-9-yl]methyl]-4-methyl-1,2,5-oxadiazole]	> 10	0.0092

SMILES	EC50 (human CB1 receptors) [µM]	EC50 (human CB2 receptors) [µM]
Cc1noc(Cn2cnc3c(N4CC5(COC5)C4)nc(NC(C)(C)C)nc32)n1 [Example 141, N-tert-butyl-9-[(3-methyl-1,2,4-oxadiazol-5-yl)methyl]-6-(2-oxa-6-azaspiro[3.3]heptan-6-yl)purin-2-amine]	> 10	0.0409
CC(C)(C)Nc1nc(N2CC3(COC3)C2)c2ncn(CCC(F)(F)F)c2n1 [Example 142, N-tert-butyl-6-(2-oxa-6-azaspiro[3.3]heptan-6-yl)-9-(3,3,3-trifluoropropyl)purin-2-amine]	> 10	0.681
CC(C)(C)COc1nc(N2CC3(COC3)C2)c2ncn(Cc3ccccc3Cl)c2n1 [Example 143, 6-[9-[(2-chlorophenyl)methyl]-2-(2,2-dimethylpropoxy)purin-6-yl]-2-oxa-6-azaspiro[3.3]heptane]	> 10	0.268
Cc1nonc1Cn1cnc2c(N3CCC[C@@H]3CO)nc(C(C)(C)C)nc21 [Example 145, [(2R)-1-[2-tert-butyl-9-[(4-methyl-1,2,5-oxadiazol-3-yl)methyl]purin-6-yl]pyrrolidin-2-yl]methanol]	> 10	0.0061
CC(C)(C)c1nc(N2CCC[C@@H]2C#N)c2ncn(Cc3nnnn3C3CC3)c2n1 [Example 147, (2R)-1-[2-tert-butyl-9-[(1-cyclopropyltetrazol-5-yl)methyl]purin-6-yl]pyrrolidine-2-carbonitrile]	> 10	0.176
Cc1nonc1Cn1cnc2c(N3CCC[C@@H]3C#N)nc(C(C)(C)C)nc21 [Example 148, (2R)-1-[2-tert-butyl-9-[(4-methyl-1,2,5-oxadiazol-3-yl)methyl]purin-6-yl]pyrrolidine-2-carbonitrile]	> 10	0.0157
Cc1nonc1Cn1cnc2c(N3CC4(COC4)C3)nc(C(C)(C)C)nc21 [Example 149, 6-[2-tert-butyl-9-[(4-methyl-1,2,5-oxadiazol-3-yl)methyl]purin-6-yl]-2-oxa-6-azaspiro[3.3]heptane]	> 10	0.185
Cc1nonc1Cn1cnc2c(N3CCSC3)nc(C(C)(C)C)nc21 [Example 150, 3-[[2-tert-butyl-6-(1,3-thiazolidin-3-yl)purin-9-yl]methyl]-4-methyl-1,2,5-oxadiazole]	> 10	0.0105
CC(C)(C)COc1nc(N2CCC(F)(F)C2)c2nc[nH]c2n1 [Example 151, 6-(3,3-difluoropyrrolidin-1-yl)-2-(2,2-dimethylpropoxy)-9H-purine]	> 10	0.0287
FC1(F)CCN(c2nc(Cl)nc3c2ncn3Cc2ccccc2)C1 [Example 154, 9-benzyl-2-chloro-6-(3,3-difluoropyrrolidin-1-yl)purine]	> 10	0.211
CC(C)n1nnnc1Cn1cnc2c(N3CC[C@H](O)C3)nc(C(C)(C)C)nc21 [Example 155, (3S)-1-[2-tert-butyl-9-[(1-propan-2-yltetrazol-5-yl)methyl]purin-6-yl]pyrrolidin-3-ol]	> 10	0.0823
CC(C)(C)c1nc(N2CCC(F)(F)C2)c2ncn(Cc3nnnn3C3CC3)c2n1 [Example 156, 2-tert-butyl-9-[(1-cyclopropyltetrazol-5-yl)methyl]-6-(3,3-difluoropyrrolidin-1-yl)purine]	> 10	0.0091
CC(C)(C)c1nc(N2CCC[C@@H]2CO)c2ncn(Cc3ncccc3Cl)c2n1 [Example 157, [(2R)-1-[2-tert-Butyl-9-[(3-chloropyridin-2-yl)methyl]purin-6-yl]pyrrolidin-2-yl]methanol]	> 10	0.0043
CCCn1nnnc1Cn1cnc2c(N3CC[C@H](O)C3)nc(C(C)(C)C)nc21 [Example 158, (3S)-1-[2-tert-butyl-9-[(1-propyltetrazol-5-yl)methyl]purin-6-yl]pyrrolidin-3-ol]	> 10	0.0616
CC(C)(C)c1nc(N2CC[C@H](O)[C@H]2CO)c2ncn(Cc3ncccc3Cl)c2n1 [Example 159, (2R,3S)-1-[2-tert-butyl-9-[(3-chloropyridin-2-yl)methyl]purin-6-yl]-2-(hydroxymethyl)pyrrolidin-3-ol]	> 10	0.591
CC(C)(C)c1nc(N2CCSC2)c2ncn(Cc3ncccc3Cl)c2n1 [Example 161, 3-[2-tert-butyl-9-[(3-chloropyridin-2-yl)methyl]purin-6-yl]-1,3-thiazolidine]	> 10	0.0126
CC(C)(C)c1nc(N2CCC[C@@H]2C#N)c2ncn(Cc3ncccc3Cl)c2n1 [Example 163, (2R)-1-[2-tert-Butyl-9-[(3-chloropyridin-2-yl)methyl]purin-6-yl]pyrrolidine-2-carbonitrile]	> 10	0.0069
